Legend:
[1] = molecular target: T1, full-length recombinant rat vitamin D receptor (Rattus norvegicus, UniProt P13053); experiment: Vitamin D receptor binding, competition with [3H]-1,25-(OH)2-D3; conditions: FIG. 1
T1 construct: Full-length recombinant rat receptor was expressed in E. coli BL21(DE3) Codon Plus RIL cells; His tag (C); made in house; host or cells: E. coli BL21(DE3) Codon Plus RIL
T1 sequence (P13053 1-423): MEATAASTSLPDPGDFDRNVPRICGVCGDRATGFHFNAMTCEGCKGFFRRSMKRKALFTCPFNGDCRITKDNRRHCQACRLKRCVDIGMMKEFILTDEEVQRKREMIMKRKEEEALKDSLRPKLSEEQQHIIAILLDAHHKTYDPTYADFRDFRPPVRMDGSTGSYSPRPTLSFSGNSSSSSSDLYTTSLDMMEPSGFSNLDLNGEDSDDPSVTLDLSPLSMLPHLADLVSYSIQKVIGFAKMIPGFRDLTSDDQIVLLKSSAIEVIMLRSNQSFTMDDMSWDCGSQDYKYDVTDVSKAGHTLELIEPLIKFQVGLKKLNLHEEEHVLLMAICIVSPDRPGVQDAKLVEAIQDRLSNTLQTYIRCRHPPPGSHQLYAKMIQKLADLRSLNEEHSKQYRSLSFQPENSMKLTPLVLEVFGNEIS
Excerpt: FIG. 1 is a graph comparing the relative activity of NP9 and 1,25(OH)2D3 to compete for binding with [^3H]-1,25-(OH)2-D3 to the full-length recombinant rat vitamin D receptor.
Full-length recombinant rat receptor was expressed in E. coli BL21(DE3) Codon Plus RIL cells and purified to homogeneity using two different column chromatography systems. The first system was a nickel affinity resin that utilizes the C-terminal histidine tag on this protein. The protein that eluted from this resin was further purified using ion exchange chromatography (S-Sepharose Fast Flow). Aliquots of the purified protein were quick frozen in liquid nitrogen and stored at −80° C. until use. For use in binding assays, the protein was diluted in TEDK50 (50 mM Tris, 1.5 mM EDTA, pH 7.4, 5 mM DTT, 150 mM KCl) with 0.1% Chaps detergent. […]
Unlabeled ligands were dissolved in ethanol and the concentrations were determined using UV spectrophotometry (1,25(OH)2D3: molar extinction coefficient=18,200 and λmax=265 nm). […]
Radiolabeled and unlabeled ligands were added to 100 mcl of the diluted protein at a final ethanol concentration of ≧10%, mixed and incubated overnight on ice to reach binding equilibrium. […] Total binding was determined from the tubes containing only radiolabeled ligand.

[2] = tested on: Human promyelocytic leukemia (HL60) cells; experiment: HL-60 differentiation (nitro blue tetrazolium reduction); type: cell-based; conditions: FIG. 2
Method: FIG. 2 is a graph comparing the percent HL-60 cell differentiation as a function of the concentration of NP9 with that of 1,25(OH)2D3.
The study drugs were dissolved in ethanol and the concentrations determined using UV spectrophotometry. Serial dilutions were prepared so that a range of drug concentrations was tested without changing the final concentration of ethanol (≦0.2%) present in the cell cultures.
Human promyelocytic leukemia (HL60) cells were grown in RPMI-1640 medium containing 10% fetal bovine serum. The cells were incubated at 37° C. in the presence of 5% CO2.
HL60 cells were plated at 1.2×10^5 cells/mL. Eighteen hours after plating, cells in duplicate were treated with drug. Four days later, the cells were harvested and a nitro blue tetrazolium reduction assay was performed (Collins et al., 1979; J. Exp. Med. 149:969-974). The percentage of differentiated cells was determined by counting a total of 200 cells and recording the number that contain intracellular black-blue formazan deposits. Verification of differentiation to monocytic cells was determined by measuring phagocytic activity.

[3] = tested on: 24-hydroxylase (24Ohase) gene promoter; experiment: In vitro transcription assay (luciferase reporter in ROS 17/2.8 cells); type: cell-based; conditions: 24Ohase promoter-luciferase, FIG. 3
Method: FIG. 3 is a graph comparing the in vitro transcription activity of NP9 with that of 1,25(OH)2D3.
Transcription activity was measured in ROS 17/2.8 (bone) cells that were stably transfected with a 24-hydroxylase (24Ohase) gene promoter upstream of a luciferase reporter gene (Arbour et al., 1998). Cells were given a range of doses. Sixteen hours after dosing the cells were harvested and luciferase activities were measured using a luminometer. RLU=relative luciferase units.
Antagonism was tested by adding a combination of 1,25(OH)2D3 and the compound in the same well keeping the final ethanol concentration the same.

[4] = tested on: Sprague-Dawley rats; experiment: Bone calcium mobilization (serum calcium); type: in vivo, rat; conditions: four consecutive ip doses, FIG. 4B
Excerpt: (§1) FIGS. 4A and 4B are graphs comparing intestinal calcium transport (4A) and bone calcium mobilization (4B) of NP9 and 1,25(OH)2D3.
(§2) Male, weanling Sprague-Dawley rats were placed on Diet 11 (Suda et al. J. Nutr. 100:1049, 1970) (0.47% Ca) diet+vitamins AEK for one week followed by Diet 11 (0.02% Ca)+AEK for 3 weeks. The rats were then switched to a diet containing 0.47% Ca for one week followed by two weeks on a diet containing 0.02% Ca. Dose administration began during the last week on 0.02% calcium diet. Four consecutive ip doses were given approximately 24 hours apart. Twenty-four hours after the last dose, blood was collected from the severed neck and the concentration of serum calcium was determined as a measure of bone calcium mobilization. The first 10 cm of the intestine was also collected for intestinal calcium transport analysis using the everted gut sac method. Antagonism was tested by administering a combination of 1,25(OH)2D3 and the compound to the animal simultaneously.

[5] = tested on: Sprague-Dawley rats; experiment: Intestinal calcium transport (everted gut sac method); type: in vivo, rat; conditions: four consecutive ip doses, FIG. 4A
Excerpt: as §1, §2

## CC(C)[C@H]1CC[C@H]2/C(=C/C=C3C[C@@H](O)C[C@H](O)C3)CCC[C@]12C [formula 1B, 19,23,24,25,26,27-Hexanor-1α-hydroxyvitamin D3]
[1]
  binding to the vitamin D receptor relative to 1,25-(OH)2D3: does not bind to the vitamin D receptor as strongly as the native hormone 1,25-(OH)2D3
[2]
  activity in inducing differentiation of HL-60 cells compared to 1,25-(OH)2D3: less but still significant activity compared to 1,25-(OH)2D3
[3]
  activity in causing transcription compared to 1,25-(OH)2D3: does not show as much activity in causing transcription as 1,25-(OH)2D3
[4]
  bone calcium mobilizing activity: no measurable bone calcium mobilizing activity
[5]
  intestinal calcium transport activity: no measurable

From US20070066566A1, “19,23,24,25,26,27-Hexanor-1alpha-hydroxyvitamin D3” (Wisconsin Alumni Research Foundation, priority 2005, published 2007)
